The experiment concerns adipocytes isolated from normal rat. The experiment in a line: Lipolysis assay in isolated adipocytes (isoprenaline-induced). In kind it is cell-based. The conditions noted are these: 30 μM, FIG. 1. The procedure: Animals are killed by cervical dislocation and epididymal fat pads are removed and digested in collagenase buffer at 37° C./120 rpm for approximately 50 minutes.
After the pre-treatment, Isoprenaline (1 μM) is added to the adipocytes followed by 30 min incubation at 37° C./150 rpm. The reactions are put on ice and the buffer is assayed spectrophotometrically for the production of NADH^+ from glycerol breakdown in reactions catalyzed by glycerol kinase and glycero 1-3-phosphate dehydrogenase and/or Non Esterified Fatty Acid (NEFA). Each data point is investigated in triplicates in two independent experiments.

1 compound from US11072582B2 (Epics Therapeutics, priority 2009, dated 2021) can be followed below.

In the case of `Cc1ccc(-c2ccc(C(=O)N3[C@@H](c4ccccc4Cl)CC[C@H]3C(=O)O)cc2)cc1` [Compound 5], the “inhibition of isoprenaline-induced lipolysis” value is listed as “inhibit isoprenaline-induced lipolysis”.
